Measured values from US8399419B2, “Antibacterial aminoglycoside analogs” (Achaogen, Inc., priority 2008, dated 2013).
Values after ≈ are worked out from the molar mass of the structure shown.

Experiments:
P. aeruginosa ATCC 27853 = test: MIC assay (CLSI broth microdilution), APAE001; type: cell-based; settings: APAE001 is ATCC27853 (P. aeruginosa), Mueller Hinton Broth, 35 C, 20 hours; for MIC: Pseudomonas aeruginosa
Procedure: (§1) Minimum inhibitory concentrations (MIC) were determined by reference Clinical and Laboratory Standards Institute (CLSI) broth microdilution methods per M7-A7 [2006]. Quality control ranges utilizing E. coli ATCC 25922, P. aeruginosa ATCC 27853 and S. aureus ATCC 29213, and interpretive criteria for comparator agents were as published in CLSI M100-S17 [2007]. Briefly, serial two-fold dilutions of the test compounds were prepared at 2× concentration in Mueller Hinton Broth. The compound dilutions were mixed in 96-well assay plates in a 1:1 ratio with bacterial inoculum. The inoculum was prepared by suspension of a colony from an agar plate that was prepared the previous day. Bacteria were suspended in sterile saline and added to each assay plate to obtain a final concentration of 5×10^5 CFU/mL. The plates were incubated at 35 C for 20 hours in ambient air.

E. coli ATCC 25922 = test: MIC assay (CLSI broth microdilution), AECO001; type: cell-based; settings: AECO001 is ATCC25922 (E. coli), Mueller Hinton Broth, 35 C, 20 hours; for MIC: Escherichia coli
Procedure: as §1

Row | Compound | MIC APAE001 (P. aeruginosa ATCC 27853) | MIC AECO001 (E. coli ATCC 25922) | MIC (P. aeruginosa ATCC 27853) [µg/mL] | MIC (E. coli ATCC 25922) [µg/mL]
1 | 3′,4′,3′″,4′″-tetra-deoxy-1-(3-amino-propionyl)-neomycin [Example 14/Compound 4] | B (MIC's of greater than 1.0 μg/mL to 16.0 μg/mL = B) | B (MIC's of greater than 1.0 μg/mL to 16.0 μg/mL = B) | – | –
2 | NCC[C@H](O)C(=O)N[C@@H]1C[C@H](N)[C@@H](O[C@H]2O[C@H](CO)CC[C@H]2N)[C@H](O[C@@H]2O[C@H](CO)[C@@H](O[C@H]3O[C@@H](CN)CC[C@H]3N)[C@H]2O)[C@H]1O [Example 1/Compound 16, 3′,4′,3′″,4′″-tetradeoxy-1-(4-amino-2(S)-hydroxy-butyryl)-paromomycin] | – | – | > 16 | 1 to 16 (≈ 1.53 to 24.5 µM)
3 | NC[C@H]1CC[C@@H](N)[C@@H](O[C@H]2[C@@H](O)[C@H](O[C@@H]3[C@@H](O)[C@H](N)C[C@H](N)[C@H]3O[C@H]3O[C@H](CO)CC[C@H]3N)O[C@@H]2CO)O1 [Example 2/Compound 8] | – | – | > 16 | 1 to 16 (≈ 1.81 to 29 µM)
4 | NC[C@@H]1CC[C@@H](N)[C@@H](O[C@H]2[C@H](O[C@@H]3O[C@H](CO)[C@@H](O[C@H]4O[C@@H](CN)CC[C@H]4N)[C@H]3O)[C@@H](O)[C@H](N)C[C@@H]2N)O1 [Example 3/Compound 6, 3′,4′,3′″,4′″-tetra-deoxy-neomycin] | – | – | ≤ 1 | ≤ 1
5 | NCC[C@H](O)C(=O)N[C@@H]1C[C@H](N)[C@@H](O[C@H]2O[C@H](CN)CC[C@H]2N)[C@H](O[C@@H]2O[C@H](CO)[C@@H](O[C@H]3O[C@@H](CN)CC[C@H]3N)[C@H]2O)[C@H]1O [Example 4/Compound 5, 3′,4′,3′″,4′″-tetra-dehydro-1-(4-amino-2(S)-hydroxy-butyryl)-neomycin] | – | – | ≤ 1 | 1 to 16 (≈ 1.53 to 24.5 µM)
6 | NCC[C@H](O)C(=O)N[C@@H]1C[C@H](N)[C@@H](O[C@H]2O[C@H](CN)C=C[C@H]2N)[C@H](O[C@@H]2O[C@H](CO)[C@@H](O[C@H]3O[C@@H](CN)C=C[C@H]3N)[C@H]2O)[C@H]1O [Example 5/Compound 7] | – | – | ≤ 1 | 1 to 16 (≈ 1.54 to 24.7 µM)
7 | NCC[C@H](O)C(=O)N[C@@H]1C[C@H](N)[C@@H](O[C@H]2O[C@H](CN)CC[C@H]2N)[C@H](O[C@@H]2O[C@H](CO)[C@@H](O[C@H]3O[C@H](CN)CC[C@H]3N)[C@H]2O)[C@H]1O [Example 6/Compound 9] | – | – | 1 to 16 (≈ 1.53 to 24.5 µM) | 1 to 16 (≈ 1.53 to 24.5 µM)
8 | NCCCS(=O)(=O)N[C@@H]1C[C@H](N)[C@@H](O[C@H]2O[C@H](CN)CC[C@H]2N)[C@H](O[C@@H]2O[C@H](CO)[C@@H](O[C@H]3O[C@@H](CN)CC[C@H]3N)[C@H]2O)[C@H]1O [Example 7/Compound 4] | – | – | ≤ 1 | 1 to 16 (≈ 1.49 to 23.8 µM)
9 | CC(=O)N[C@@H]1C[C@H](N)[C@@H](O[C@H]2O[C@H](CN)CC[C@H]2N)[C@H](O[C@@H]2O[C@H](CO)[C@@H](O[C@H]3O[C@@H](CN)CC[C@H]3N)[C@H]2O)[C@H]1O [Example 8/Compound 3] | – | – | 1 to 16 (≈ 1.69 to 27 µM) | 1 to 16 (≈ 1.69 to 27 µM)
10 | NC[C@@H]1CC[C@@H](N)[C@@H](O[C@H]2[C@H](O[C@@H]3O[C@H](CO)[C@@H](O[C@H]4O[C@@H](CN)CC[C@H]4N)[C@H]3O)[C@@H](O)[C@H](NC(=O)C3(O)CC(N)C3)C[C@@H]2N)O1 (stereo partly drawn) [Example 9/Compound 4] | – | – | ≤ 1 | ≤ 1
11 | NC[C@@H]1CC[C@@H](N)[C@@H](O[C@H]2[C@H](O[C@@H]3O[C@H](CO)[C@@H](O[C@H]4O[C@@H](CN)CC[C@H]4N)[C@H]3O)[C@@H](O)[C@H](NC(=O)C3(O)CNC3)C[C@@H]2N)O1 [Example 10/Compound 4] | – | – | ≤ 1 | ≤ 1
12 | NC[C@@H]1CC[C@@H](N)[C@@H](O[C@H]2[C@H](O[C@@H]3O[C@H](CO)[C@@H](O[C@H]4O[C@@H](CN)CC[C@H]4N)[C@H]3O)[C@@H](O)[C@H](NCCC(N)=O)C[C@@H]2N)O1 [Example 11/Compound 3, 3′,4′,3′″,4′″-tetra-deoxy-1-(3-propionamide)-neomycin] | – | – | 1 to 16 (≈ 1.61 to 25.7 µM) | 1 to 16 (≈ 1.61 to 25.7 µM)
13 | NCC(O)CN[C@@H]1C[C@H](N)[C@@H](O[C@H]2O[C@H](CN)CC[C@H]2N)[C@H](O[C@@H]2O[C@H](CO)[C@@H](O[C@H]3O[C@@H](CN)CC[C@H]3N)[C@H]2O)[C@H]1O (stereo partly drawn) [Example 12/Compound 3, 3′,4′,3′″,4′″-tetra-deoxy-1-(2-hydroxy-3-amino-propyl)-neomycin] | – | – | ≤ 1 | 1 to 16 (≈ 1.6 to 25.7 µM)
14 | NC[C@@H]1CC[C@@H](N)[C@@H](O[C@H]2[C@H](O[C@@H]3O[C@H](CO)[C@@H](O[C@H]4O[C@@H](CN)CC[C@H]4N)[C@H]3O)[C@@H](O)[C@H](NC(=O)[C@@H](O)CN)C[C@@H]2N)O1 [Example 13/Compound 4, 3′,4′,3′″,4′″-tetra-deoxy-1-(2(S)-hydroxy-3-amino-propionyl)-neomycin] | – | – | ≤ 1 | 1 to 16 (≈ 1.57 to 25.1 µM)
15 | N#CCCC(=O)N[C@@H]1C[C@H](N)[C@@H](O[C@H]2O[C@H](CN)CC[C@H]2N)[C@H](O[C@@H]2O[C@H](CO)[C@@H](O[C@H]3O[C@@H](CN)CC[C@H]3N)[C@H]2O)[C@H]1O [Example 14/Compound 3, 3′,4′,3′″,4′″-tetra-deoxy-1-(3-cyano-propionyl)-neomycin] | – | – | > 16 | 1 to 16 (≈ 1.58 to 25.3 µM)
16 | NC[C@@H]1CC[C@@H](N)[C@@H](O[C@H]2[C@H](O[C@@H]3O[C@H](CO)[C@@H](O[C@H]4O[C@@H](CN)CC[C@H]4N)[C@H]3O)[C@@H](O)[C@H](NCCO)C[C@@H]2N)O1 [Example 15/Compound 3, 3′,4′,3′″,4′″-tetra-deoxy-1-(2-hydroxyethyl)-neomycin] | – | – | 1 to 16 (≈ 1.68 to 26.9 µM) | 1 to 16 (≈ 1.68 to 26.9 µM)
17 | NC[C@@H]1CC[C@@H](N)[C@@H](O[C@H]2[C@H](O[C@@H]3O[C@H](CO)[C@@H](O[C@H]4O[C@@H](CN)CC[C@H]4N)[C@H]3O)[C@@H](O)[C@H](NCc3cccc(O)c3)C[C@@H]2N)O1 [Example 16/Compound 3, 3′,4′,3′″,4′″-tetra-deoxy-1-(3-hydroxybenzyl)-neomycin] | – | – | 1 to 16 (≈ 1.52 to 24.4 µM) | 1 to 16 (≈ 1.52 to 24.4 µM)
18 | N=C(N)NCC[C@H](O)C(=O)N[C@@H]1C[C@H](N)[C@@H](O[C@H]2O[C@H](CN)CC[C@H]2N)[C@H](O[C@@H]2O[C@H](CO)[C@@H](O[C@H]3O[C@@H](CN)CC[C@H]3N)[C@H]2O)[C@H]1O [Example 17/Compound 4, 3′,4′,3′″,4′″-tetra-deoxy-1-(2(S)-hydroxy-4-guanidino-butyryl)-neomycin] | – | – | ≤ 1 | 1 to 16 (≈ 1.44 to 23.1 µM)
19 | NC[C@@H]1CC[C@@H](N)[C@@H](O[C@H]2[C@H](O[C@@H]3O[C@H](CO)[C@@H](O[C@H]4O[C@@H](CN)CC[C@H]4N)[C@H]3O)[C@@H](O)[C@H](NCC(O)CO)C[C@@H]2N)O1 (stereo partly drawn) [Example 18/Compound 3, 3′,4′,3′″,4′″-tetra-deoxy-1-(2,3-bis-hydroxy-propyl)-neomycin] | – | – | ≤ 1 | 1 to 16 (≈ 1.6 to 25.6 µM)
20 | NCC(=O)N[C@@H]1C[C@H](N)[C@@H](O[C@H]2O[C@H](CN)CC[C@H]2N)[C@H](O[C@@H]2O[C@H](CO)[C@@H](O[C@H]3O[C@@H](CN)CC[C@H]3N)[C@H]2O)[C@H]1O [Example 19/Compound 3, 3′,4′,3′″,4′″-tetra-deoxy-1-(2-aminoacetyl)-neomycin] | – | – | 1 to 16 (≈ 1.65 to 26.3 µM) | 1 to 16 (≈ 1.65 to 26.3 µM)
21 | NC[C@@H]1CC[C@@H](N)[C@@H](O[C@H]2[C@H](O[C@@H]3O[C@H](CO)[C@@H](O[C@H]4O[C@@H](CN)CC[C@H]4N)[C@H]3O)[C@@H](O)[C@H](NC(=O)[C@@H](N)CO)C[C@@H]2N)O1 [Example 20/Compound 3, 3′,4′,3′″,4′″-tetra-deoxy-1-(2(S)-amino-3-hydroxy-propionyl)-neomycin] | – | – | 1 to 16 (≈ 1.57 to 25.1 µM) | 1 to 16 (≈ 1.57 to 25.1 µM)
22 | NC[C@@H]1CC[C@@H](N)[C@@H](O[C@H]2[C@H](O[C@@H]3O[C@H](CO)[C@@H](O[C@H]4O[C@@H](CN)CC[C@H]4N)[C@H]3O)[C@@H](O)[C@H](NC(CO)CO)C[C@@H]2N)O1 [Example 21/Compound 3, 3′,4′,3′″,4′″-tetra-deoxy-1-(2-hydroxy-1-hydroxymethyl-ethyl)-neomycin] | – | – | 1 to 16 (≈ 1.6 to 25.6 µM) | 1 to 16 (≈ 1.6 to 25.6 µM)
23 | NCCN(O)C(=O)N[C@@H]1C[C@H](N)[C@@H](O[C@H]2O[C@H](CN)CC[C@H]2N)[C@H](O[C@@H]2O[C@H](CO)[C@@H](O[C@H]3O[C@@H](CN)CC[C@H]3N)[C@H]2O)[C@H]1O [Example 22/Compound 6] | – | – | ≤ 1 | ≤ 1
24 | NCCS(=O)(=O)N[C@@H]1C[C@H](N)[C@@H](O[C@H]2O[C@H](CN)CC[C@H]2N)[C@H](O[C@@H]2O[C@H](CO)[C@@H](O[C@H]3O[C@@H](CN)CC[C@H]3N)[C@H]2O)[C@H]1O [Example 23/Compound 4, 3′,4′,3′″,4′″-tetra-deoxy-1-(2-amino-ethylsulfonamide)-neomycin] | – | – | – | 1 to 16 (≈ 1.52 to 24.3 µM)
25 | NC[C@@H]1CC[C@@H](N)[C@@H](O[C@H]2[C@H](O[C@@H]3O[C@H](CO)[C@@H](O[C@H]4O[C@@H](CN)CC[C@H]4N)[C@H]3O)[C@@H](O)[C@H](NC(=O)[C@@H](O)[C@H](F)CN)C[C@@H]2N)O1 [Example 24/Compound 8, 3′,4′,3′″,4′″-tetra-deoxy-1-(4-amino-3(R)-fluoro-2(R)-hydroxy-butyryl)-neomycin] | – | – | ≤ 1 | ≤ 1
26 | NC[C@@H]1CC[C@@H](N)[C@@H](O[C@H]2[C@H](O[C@@H]3O[C@H](CO)[C@@H](O[C@H]4O[C@@H](CN)CC[C@H]4N)[C@H]3O)[C@@H](O)[C@H](NC(=O)[C@H](O)[C@@H](F)CN)C[C@@H]2N)O1 [Example 25/Compound 8, 3′,4′,3′″,4′″-tetra-deoxy-1-(4-amino-3(S)-fluoro-2(S)-hydroxy-butyryl)-neomycin] | – | – | ≤ 1 | ≤ 1
